Experimental findings from patent US20100273206A1, “DIAGNOSTIC IN VITRO METHOD FOR ASSESSING VON WILLEBRAND DISEASE AND INCREASED BLEEDING RISK ASSOCIATED WITH VON WILLEBRAND DISEASE AND ACQUIRED OR CONGENITAL DISORDERS OF PLATELET FUNCTION” (priority 2007, published 2010) are described below.

Assay [1] deals with citrate-stabilized blood from a healthy patient. In words: TEG (Rotem) of kaolin-activated citrated blood incubated with increasing amounts of ristocetin. The format is cell-based, human. The conditions noted are these: 10 min incubation, increasing final ristocetin concentration (up to 1.05 mg/ml). How it is done: Citrate-stabilized blood from a healthy patient was transferred to a vial containing a standardized kaolin reagent and mixed by inversion The kaolin reagent was purchased from Haemoscope Corporation. The mixture was mixed well and divided into two 500 μL aliquots. Different amounts of ristocetin at a concentration of 15 mg mL^−1 was added to one part of the activated blood aliquots and both samples were incubated on a mixer for 10 min. 300 μL of both aliquots were filled to TEG assay cups and 20 μL of 0.2 M CaCl2 were added. The TEG tracings were allowed to run as least until the maximal amplitude was reached using a Rotem Analyser. […] Dependent of the final ristocetin concentration a decrease of the maximal amplitude and an increase in the clotting time were observed.

Assay [2] concerns citrate-stabilized blood (platelets and VWF). In words: TEG maximal amplitude with versus without ristocetin preincubation. Type of assay: cell-based, human. The conditions noted are these: for maximal amplitude after ristocetin preincubation relative to maximal amplitude without preincubation: 25 μL of 15 mg/mL ristocetin per 500 μL, 10 min. How it is done:
If TEG is the assay to determine the viscoelastic change the platelet activation in response to the activator of platelet aggregation for example ristocetin can by way of non limiting example be determined from the maximum amplitudes in the control without added platelet activator (MA) and the sample with the added platelet activator Ristocetin (MARistocetin): which can then be expressed as the ratio (MARistocetin/MA)*100. The percentage change is determined to assess individual subject's responses, thus providing an indication of relative response to a certain dose of ristocetin.
Analyser and the reagents were from Haemoscope Corporation. 1.3 mL of blood was collected in 3.18% trisodium citrate (1:9 anticoagulant to blood). One millilitre of citrate-stabilized blood was transferred to a vial containing a standardized kaolin reagent and mixed by inversion. The mixture was mixed well and divided into two 500 μL aliquots. 25 μL ristocetin at a concentration of 15 mg mL^−1 was added to one part of the activated blood aliquots and both samples were incubated on a mixer for 10 min. 360 μL of both aliquots were filled to TEG assay cups and 20 μL of 0.2 M CaCl2 were added. The TEG tracings were allowed to run as least until the maximal amplitude was reached.
According to the procedure in example 2 blood samples from healthy patients and patients with from VWD were tested. All VWD samples derived from patients diagnosed as having VWD using standard criteria. In addition to VWD plasma, a number of normal samples were also collected and used for comparative studies. The platelet activation in response to ristocetin is determined from the maximum amplitudes in the control (MA) and ristocetin activated trace (MARistocetin): MARicocetin/MA*100. The percentage change was calculated to assess individual subject's responses, thus providing an indication of relative response to a certain dose of ristocetin (0.71 mg/ml and 1,05 mg/ml final concentration). The Kaolin induced sample without adding ristocetin acted as the control measurement. […] Almost all platelets are deactivated and no more platelet contribution to the clot strength is detectable.

For a further assay, the system named is VWD type 1 patients. In words: In vivo therapy control (DDAVP). Conditions: three VWD type 1 patients; before, 30 min and 180 min after DDAVP. The arrangement: species or system human. An excerpt: Therapy in VWD may be necessary to alleviate a bleeding episode or to prevent bleeding episode. Most individuals with type 1 VWD generally are managed effectively using DDAVP (Desmopressin acetate), which acts to release endogenous stored VWF. It is usual to conduct a trial of DDAVP and then monitor the response by subsequent blood sampling and testing. […] The method is a simple and rapid tool to discriminate responders from nonresponders to DDAVP. The advantage of this method is the close to immediate test time obtained. The result is available very soon after blood sampling. In contrast the VWF:CB result is generally obtained some days after blood sampling. The values for the amplitude ratio, the VWF:Ag and VWF-RCo are shown in figure 7 for three time points (before, 30 min after and 180 min after administration of DDAVP).

Regarding ristocetin, in assay [1], the clotting time result is recorded as “increase”. The maximal amplitude result in assay [1] was “decrease”. Besides, the “maximal amplitude after ristocetin preincubation relative to maximal amplitude without preincubation” value was “about 75%” in assay [2] (blood from a VWD type 1 patient), about 100% in assay [2] (blood from a VWD type 3 patient) and “about 20%” in assay [2] (normal blood). Besides, the “clot strength after ristocetin incubation” value in assay [2] (patients with VWD, 0.71 mg/ml and 1,05 mg/ml final concentration) was “not or only slightly modified”. Moreover, the “maximum amplitude after incubation with ristocetin” value in assay [2] (patients without VWD, 0.71 mg/ml and 1,05 mg/ml final concentration) is recorded as “significant decrease”.

Regarding `NC(=O)CC[C@@H]1NC(=O)[C@H](Cc2ccccc2)NC(=O)[C@H](Cc2ccc(O)cc2)NC(=O)CCSSC[C@@H](C(=O)N2CCC[C@H]2C(=O)N[C@H](CCCN=C(N)N)C(=O)NCC(N)=O)NC(=O)[C@H](CC(N)=O)NC1=O` [DDAVP, Desmopressin acetate], in the assay with VWD type 1 patients, the “TEG ratio (maximal amplitude with ristocetin/without ristocetin)*100” value is given as “normalize”, the “VWF:Ag” value is given as “increase” and the ristocetin cofactor activity result is listed as “increase”.
